Measured values from US20240366770A1, “DEGRADATION OF BRUTON'S TYROSINE KINASE (BTK) BY CONJUGATION OF BTK INHIBITORS WITH E3 LIGASE LIGAND AND METHODS OF USE” (BeiGene Switzerland GmbH, priority 2021, published 2024).
Like-named read-outs stand apart in the source and are kept apart here.

Experiments:
BTK = target: T1, BTK (Homo sapiens, UniProt Q06187); assay: BTK degradation in TMD-8 cells (HTRF assay); format: cell-based; settings: 6 h treatment, IC50 (DC50) of BTK degradation
T1 construct: High control=Cell group with added DMSO and without compound, indicating microplate readings without BTK degradation; endogenous in cells; host or cells: TMD-8
In short: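 BTK remaining after compound treatment was measured by HTRF (337 nm excitation, 665/620 nm emission) in lysates of TMD-8 cells. Cells were exposed for 6 h to eight 6-fold-spaced concentrations in 0.2% DMSO. DC50 values were obtained from a Hill-equation fit (top, bottom, slope) of % inhibition.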

HEK-293 cells = assay: HEK-293 cytotoxicity detection (CellTiter-Glo); format: cell-based; settings: HEK-293 cells, 72 h incubation, CellTiter-Glo luminescence, IC50 of cell proliferation inhibition, read-out: HEK293
In short: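 Four-parameter logistic fitting of percent inhibition versus concentration gives IC50. Luminescent ATP read-out (CellTiter-Glo) after 72 h compound treatment of HEK-293 cells, 8 doses in 4-fold steps from a 5 mM 500× DMSO stock, final DMSO 0.2%.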

T1 sequence (Q06187 whole entry): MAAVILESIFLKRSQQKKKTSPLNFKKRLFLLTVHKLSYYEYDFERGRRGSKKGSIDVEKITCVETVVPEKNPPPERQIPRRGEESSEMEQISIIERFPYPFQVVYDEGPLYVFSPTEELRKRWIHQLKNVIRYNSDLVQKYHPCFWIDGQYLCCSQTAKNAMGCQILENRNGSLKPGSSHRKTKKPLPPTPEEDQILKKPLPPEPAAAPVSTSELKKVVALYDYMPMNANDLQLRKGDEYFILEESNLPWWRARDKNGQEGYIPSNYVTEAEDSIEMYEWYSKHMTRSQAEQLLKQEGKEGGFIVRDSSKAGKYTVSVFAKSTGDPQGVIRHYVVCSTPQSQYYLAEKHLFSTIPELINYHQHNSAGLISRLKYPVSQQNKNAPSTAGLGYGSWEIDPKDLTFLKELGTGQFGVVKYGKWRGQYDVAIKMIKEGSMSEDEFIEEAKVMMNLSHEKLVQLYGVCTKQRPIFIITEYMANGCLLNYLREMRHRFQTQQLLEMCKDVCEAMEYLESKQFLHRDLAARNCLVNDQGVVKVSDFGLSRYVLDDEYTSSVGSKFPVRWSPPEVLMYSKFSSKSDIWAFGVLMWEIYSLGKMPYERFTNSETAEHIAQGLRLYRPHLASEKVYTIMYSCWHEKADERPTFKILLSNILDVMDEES

Question: COc1cc2c(cc1N1CCN(C3CC(c4ccc(N[C@H]5CCC(=O)NC5=O)cc4)C3)CC1)[nH]c1ncnc(-c3cc(C)c([C@@H](C)NC(=O)c4nc(C5(C)CC5)no4)cc3F)c12 (stereo partly drawn) [Example 94, N—((R)-1-(4-(7-(4-((1S,3s)-3-(4-(((R)-2,6-dioxopiperidin-3-yl)amino)phenyl)cyclobutyl)piperazin-1-yl)-6-methoxy-9H-pyrimido[4,5-b]indol-4-yl)-5-fluoro-2-methylphenyl)ethyl)-3-(1-methylcyclopropyl)-1,2,4-oxadiazole-5-carboxamide] was tested. Which DC50 (BTK) did it give?
Answer: 0.768 nM

Question: And the IC50 (HEK-293 cells)?
Answer: 420 nM

Question: Which results are given for Cc1cc(-c2ncnc3[nH]c4cc(C5CCN(CC6CCN(c7ccc(N8CCC(=O)NC8=O)cc7)CC6)CC5)ncc4c23)ccc1[C@@H](C)NC(=O)c1nc(C(C)(C)C)no1 [Example 42, (R)-3-(tert-butyl)-N-(1-(4-(7-(1-((1-(4-(2,4-dioxotetrahydropyrimidin-1(2H)-yl)phenyl)piperidin-4-yl)methyl)piperidin-4-yl)-9H-pyrido[3′,4′:4,5]pyrrolo[2,3-d]pyrimidin-4-yl)-2-methylphenyl)ethyl)-1,2,4-oxadiazole-5-carboxamide]?
Answer: DC50 (BTK): 1.29 nM; IC50 (HEK-293 cells; Homo sapiens): 6730 nM

Question: How did the DC50 (BTK) turn out when Cc1cc(-c2ncnc3[nH]c4cc(CCN5CCN(c6ccc(N7CCC(=O)NC7=O)cc6)CC5)ccc4c23)ccc1[C@@H](C)NC(=O)c1nc(C(C)(C)C)no1 [Example 106, (R)-3-(tert-butyl)-N-(1-(4-(7-(2-(4-(4-(2,4-dioxotetrahydropyrimidin-1(2H)-yl)phenyl)piperazin-1-yl)ethyl)-9H-pyrimido[4,5-b]indol-4-yl)-2-methylphenyl)ethyl)-1,2,4-oxadiazole-5-carboxamide] was run?
Answer: 0.324 nM

Question: What about the IC50 (HEK-293 cells; Homo sapiens) of the same molecule?
Answer: > 10000 nM

Question: Which DC50 (BTK) does the source give for Cc1c([C@@H](C)NC(=O)c2noc(C(C)(C)C)n2)ccc(-c2ncnc3[nH]c4cc(N5CCN(C6CCN(Cc7ccc8c(c7)n(C7CCC(=O)NC7=O)c(=O)n8C)CC6)CC5)ccc4c23)c1F (stereo partly drawn) [Example 87, 5-(tert-butyl)-N-((1R)-1-(4-(7-(4-(1-((3-(2,6-dioxopiperidin-3-yl)-1-methyl-2-oxo-2,3-dihydro-1H-benzo[d]imidazol-5-yl)methyl)piperidin-4-yl)piperazin-1-yl)-9H-pyrimido[4,5-b]indol-4-yl)-3-fluoro-2-methylphenyl)ethyl)-1,2,4-oxadiazole-3-carboxamide] here?
Answer: > 2000 nM

Question: What about the IC50 (HEK-293 cells; Homo sapiens) of the same molecule?
Answer: > 10000 nM

Question: Which DC50 (BTK) does the source give for Cc1cc(-c2ncnc3[nH]c4cc([C@@H]5CCN(CC6CCN(c7ccc(N8CCC(=O)NC8=O)cc7)CC6)C5)ccc4c23)ccc1[C@@H](C)NC(=O)c1nc(C(C)(C)C)no1 [Example 13, 3-(tert-butyl)-N—((R)-1-(4-(7-((S)-1-((1-(4-(2,4-dioxotetrahydropyrimidin-1(2H)-yl)phenyl)piperidin-4-yl)methyl)pyrrolidin-3-yl)-9H-pyrimido[4,5-b]indol-4-yl)-2-methylphenyl)ethyl)-1,2,4-oxadiazole-5-carboxamide] here?
Answer: 1.05 nM

Question: And the IC50 (HEK-293 cells; Homo sapiens)?
Answer: 3260 nM

Question: What does the source list for Cc1c([C@@H](C)NC(=O)c2noc(C(C)(C)C)n2)ccc(-c2ncnc3[nH]c4cc(N5CCN(C6CC(c7ccc([C@@H]8CCC(=O)NC8=O)cc7)C6)CC5)ccc4c23)c1F (stereo partly drawn) [Example 31, 5-(tert-butyl)-N—((R)-1-(4-(7-(4-(3-(4-((S)-2,6-dioxopiperidin-3-yl)phenyl)cyclobutyl)piperazin-1-yl)-9H-pyrimido[4,5-b]indol-4-yl)-3-fluoro-2-methylphenyl)ethyl)-1,2,4-oxadiazole-3-carboxamide]?
Answer: DC50 (BTK): 1.43 nM; IC50 (HEK-293 cells; Homo sapiens): > 10000 nM

Question: Cc1cc(-c2ncnc3[nH]c4cc(C5CCN(CCCOc6ccc(NC7CCC(=O)NC7=O)cc6)CC5)ccc4c23)ccc1CNC(=O)c1nc(C(C)(C)C)no1 (stereo not shown) [Example 3, 3-(tert-butyl)-N-(4-(7-(1-(3-(4-((2,6-dioxopiperidin-3-yl)amino)phenoxy)propyl)piperidin-4-yl)-9H-pyrimido[4,5-b]indol-4-yl)-2-methylbenzyl)-1,2,4-oxadiazole-5-carboxamide] was tested. Which DC50 (BTK) did it give?
Answer: 2.15 nM

Question: And the IC50 (HEK-293 cells; Homo sapiens)?
Answer: > 10000 nM

Question: With Cc1cc(-c2ncnc3[nH]c4ccc(C5CCN(CC6CCN(c7ccc(N8CCC(=O)NC8=O)cc7)CC6)CC5)cc4c23)ccc1CNC(=O)c1nc(C(C)(C)C)no1 [Example 2, 3-(tert-butyl)-N-(4-(6-(1-((1-(4-(2,4-dioxotetrahydropyrimidin-1(2H)-yl)phenyl)piperidin-4-yl)methyl)piperidin-4-yl)-9H-pyrimido[4,5-b]indol-4-yl)-2-methylbenzyl)-1,2,4-oxadiazole-5-carboxamide] as the molecule, how does the DC50 (BTK) read?
Answer: > 2000 nM

Question: And the IC50 (HEK-293 cells; Homo sapiens)?
Answer: 3950 nM

Question: What does the source list for COc1cc2c(cc1N1CCN(CC3CCN(c4ccc(N5CCC(=O)NC5=O)cc4)CC3)CC1)[nH]c1ncnc(-c3ccc([C@@H](C)NC(=O)c4noc(C(C)(C)C)n4)c(C)c3F)c12 [Example 58, (R)-5-(tert-butyl)-N-(1-(4-(7-(4-((1-(4-(2,4-dioxotetrahydropyrimidin-1(2H)-yl)phenyl)piperidin-4-yl)methyl)piperazin-1-yl)-6-methoxy-9H-pyrimido[4,5-b]indol-4-yl)-3-fluoro-2-methylphenyl)ethyl)-1,2,4-oxadiazole-3-carboxamide]?
Answer: DC50 (BTK): 1.87 nM; IC50 (HEK-293 cells; Homo sapiens): > 10000 nM

Question: Which DC50 (BTK) does the source give for CC(C)(C)c1noc(C(=O)NC(C)(C)C2CCN(c3ncnc4[nH]c5cc(N6CCN(CC7CCN(c8ccc(N9CCC(=O)NC9=O)cc8)CC7)CC6)ccc5c34)CC2)n1 [Example 131, 3-(tert-butyl)-N-(2-(1-(7-(4-((1-(4-(2,4-dioxotetrahydropyrimidin-1(2H)-yl)phenyl)piperidin-4-yl)methyl)piperazin-1-yl)-9H-pyrimido[4,5-b]indol-4-yl)piperidin-4-yl)propan-2-yl)-1,2,4-oxadiazole-5-carboxamide] here?
Answer: 27.5 nM

Question: And the IC50 (HEK-293 cells; Homo sapiens)?
Answer: > 10000 nM

Question: COc1cc2c(cc1N1CCN(C3CC(c4ccc([C@@H]5CCC(=O)NC5=O)cc4)C3)CC1)[nH]c1ncnc(-c3ccc([C@@H](C)NC(=O)c4noc(C(C)(C)C)n4)c(C)c3F)c12 (stereo partly drawn) [Example 59, 5-(tert-butyl)-N—((R)-1-(4-(7-(4-(3-(4-((S)-2,6-dioxopiperidin-3-yl)phenyl)cyclobutyl)piperazin-1-yl)-6-methoxy-9H-pyrimido[4,5-b]indol-4-yl)-3-fluoro-2-methylphenyl)ethyl)-1,2,4-oxadiazole-3-carboxamide] was tested. Which DC50 (BTK) did it give?
Answer: 4.55 nM

Question: What about the IC50 (HEK-293 cells; Homo sapiens) of the same molecule?
Answer: > 10000 nM

Question: Which DC50 (BTK) does the source give for COc1cc2c(cc1N1CCN(CC3CCN(c4ccc(N5CCC(=O)NC5=O)cc4)CC3)CC1)[nH]c1ncnc(-c3ccc([C@@H](C)NC(=O)c4nc(C(C)(C)C)no4)c(C)c3F)c12 [Example 54, (R)-3-(tert-butyl)-N-(1-(4-(7-(4-((1-(4-(2,4-dioxotetrahydropyrimidin-1(2H)-yl)phenyl)piperidin-4-yl)methyl)piperazin-1-yl)-6-methoxy-9H-pyrimido[4,5-b]indol-4-yl)-3-fluoro-2-methylphenyl)ethyl)-1,2,4-oxadiazole-5-carboxamide] here?
Answer: 3.05 nM

Question: And the IC50 (HEK-293 cells; Homo sapiens)?
Answer: > 10000 nM

Question: For Cc1cc(-c2ncnc3[nH]c4c(c23)CCC(N2CCN(CC3CCN(c5ccc(N6CCC(=O)NC6=O)cc5)CC3)CC2)C4)ccc1[C@@H](C)NC(=O)c1nc(C(C)(C)C)no1 (stereo partly drawn) [Example 132, 3-(tert-butyl)-N-((1R)-1-(4-(7-(4-((1-(4-(2,4-dioxotetrahydropyrimidin-1(2H)-yl)phenyl)piperidin-4-yl)methyl)piperazin-1-yl)-6,7,8,9-tetrahydro-5H-pyrimido[4,5-b]indol-4-yl)-2-methylphenyl)ethyl)-1,2,4-oxadiazole-5-carboxamide], which DC50 (BTK) is on record?
Answer: > 2000 nM

Question: And the IC50 (HEK-293 cells; Homo sapiens)?
Answer: > 10000 nM

Question: Which DC50 (BTK) does the source give for COc1cc2c(cc1N1CCN(CC3CCN(c4ccc(N5CCC(=O)NC5=O)cc4)CC3)CC1)[nH]c1ncnc(-c3cc(C)c([C@@H](C)NC(=O)c4nc(C(C)(C)C)no4)cc3F)c12 [Example 62, (R)-3-(tert-butyl)-N-(1-(4-(7-(4-((1-(4-(2,4-dioxotetrahydropyrimidin-1(2H)-yl)phenyl)piperidin-4-yl)methyl)piperazin-1-yl)-6-methoxy-9H-pyrimido[4,5-b]indol-4-yl)-5-fluoro-2-methylphenyl)ethyl)-1,2,4-oxadiazole-5-carboxamide] here?
Answer: 0.414 nM

Question: And the IC50 (HEK-293 cells; Homo sapiens)?
Answer: > 10000 nM

Question: What does the source list for Cc1c([C@@H](C)NC(=O)c2noc(C(C)(C)C)n2)ccc(-c2ncnc3[nH]c4cc(N5CCN(Cc6cccc7c6C(C)(C)C(=O)N7C6CCC(=O)NC6=O)CC5)ccc4c23)c1F (stereo partly drawn) [Example 84, 5-(tert-butyl)-N-((1R)-1-(4-(7-(4-((1-(2,6-dioxopiperidin-3-yl)-3,3-dimethyl-2-oxoindolin-4-yl)methyl)piperazin-1-yl)-9H-pyrimido[4,5-b]indol-4-yl)-3-fluoro-2-methylphenyl)ethyl)-1,2,4-oxadiazole-3-carboxamide]?
Answer: DC50 (BTK): 8.15 nM; IC50 (HEK-293 cells; Homo sapiens): > 10000 nM

Question: For Cc1c([C@@H](C)NC(=O)c2noc(C(C)(C)C)n2)ccc(-c2ncnc3[nH]c4cc(N5CCN(Cc6ccc(SC7CCC(=O)NC7=O)cc6)CC5)ccc4c23)c1F (stereo partly drawn) [Example 88, 5-(tert-butyl)-N-((1R)-1-(4-(7-(4-(4-((2,6-dioxopiperidin-3-yl)thio)benzyl)piperazin-1-yl)-9H-pyrimido[4,5-b]indol-4-yl)-3-fluoro-2-methylphenyl)ethyl)-1,2,4-oxadiazole-3-carboxamide], which DC50 (BTK) is on record?
Answer: > 2000 nM

Question: What about the IC50 (HEK-293 cells; Homo sapiens) of the same molecule?
Answer: > 10000 nM

Question: For Cc1cc(CCN2CCN(c3ccc4c(c3)[nH]c3ncnc(-c5ccc([C@@H](C)NC(=O)c6nc(C(C)(C)C)no6)c(C)c5)c34)CC2)ccc1C1CCC(=O)NC1=O (stereo partly drawn) [Example 18, 3-(tert-butyl)-N-((1R)-1-(4-(7-(4-(4-(2,6-dioxopiperidin-3-yl)-3-methylphenethyl)piperazin-1-yl)-9H-pyrimido[4,5-b]indol-4-yl)-2-methylphenyl)ethyl)-1,2,4-oxadiazole-5-carboxamide], which DC50 (BTK) is on record?
Answer: 0.607 nM

Question: And the IC50 (HEK-293 cells; Homo sapiens)?
Answer: > 10000 nM
